Laboratory results published in publication PMC11243320, “Tailoring Fibroblast-Activation Protein Targeting for Theranostics: A Comparative Preclinical Evaluation of the ^68Ga- and ^177Lu-Labeled Monomeric and Dimeric Fibroblast-Activation Protein Inhibitors DOTA.SA.FAPi and DOTAGA.(SA.FAPi)2” (Molecules, 2024).

System: PC3 tumor-bearing mice
Experiment: Ex vivo biodistribution of 68Ga-labeled radiotracers in PC3 xenografts
Description: U87MG and PC3 tumor-bearing mice: Female athymic BALB/c (6 weeks/16–20 g) and male athymic BALB/c nude mice (6 weeks/20–25 g) were implanted with U87MG or PC3 cells (5 × 10^6/100 µL PBS) into their right shoulder, respectively. The animals were used for biodistribution and PET/SPECT/CT imaging studies (Animal License No: BE98/2021).
Ten pmol (0.08–0.1 MBq) of the radiotracers in 100 µL of NaCl 0.9% were injected intravenously into the tail vein of U87MG and PC3 tumor-bearing mice and biodistribution studies were conducted at 1, 2, and 3 h after injection.
Saturation Binding Studies […]
The radioactivity of the culture medium, the receptor bound , the internalized and the externalized fractions were measured in a γ -counter. The externalized fraction of radioactivity was ex-pressed as the percentage of the total internalized amount.
[68Ga]Ga -DOTA.SA.FAPi and [ 68Ga]Ga -DOTAGA.(SA.FAPi) 2
Ten pmol ( 0.08 –0.1 MBq) of [68Ga]Ga -monomer and [ 68Ga]Ga -dimer in 100 µ L of NaCl 0.9% were injected intravenously into the tail vein of U87MG or PC3 tumor bearing mice . The PC3 tumor-bearing mice were used between the 15th and 17th day after the xenograft implantation and the size was 281 ± 75 mm3. The U87MG tumor-bearing mice were used between the 7th and 9th day after the implantation and the size was 210 ± 34 mm3. Animals were terminally anesthetized by intraperitoneal injection of an overdose of pento-barbital natrium (150 mg/kg; Streuli Pharma SA, Uznach, Switzerland) at 1, 2 and 3 h after injection of the radiotracers. The organs of interest were dissected and weighed, and the radioactivity in the tissue samples […]
was counted in a γ-counter. Biodistribution data are given as the percent of injected activity per gram of tissue (% IA/g) and as means ± SD (n = 4). […]
each radiotracer along with 20 nmol of UAMC1110 (total injected volume: 100 µL) and biodistribution stud-ies were performed 2 h after injection.
[177Lu]Lu-DOTA.SA.FAPi and [177Lu]Lu-DOTAGA.(SA.FAPi)2
Ten pmol (0.06-0.08 MBq) of [177Lu]Lu-monomer and [177Lu]Lu-dimer in 100 µL of NaCl 0.9% were injected intravenously into the tail vein of PC3 tumor-bearing mice. The PC3 tumor-bearing mice were used between the 15th and 17th day after the xenograft implantation and its size was 281 ± 75 mm3. Animals were terminally anesthetized by intraperitoneal injection of an overdose of pentobarbital natrium (150 mg/kg; Streuli Pharma SA, Uznach, Switzerland) 1, 4, 24 and 48 h after the injection of [177Lu]Lu-DOTA.SA.FAPi and at 4, 24, 48, 72 and 96 h after the injection of [177Lu]Lu-DOTAGA.(SA.FAPi)2. The organs of interest were dissected and weighed, and the radioactivity in the tissue samples was counted in a γ-counter. The biodistribution data are given as the percent of injected activity per gram of tissue (% IA/g) and as means ± SD (n = 4). […]
blood pools or if they were necrotic. Both tumor types were “clean” without extended vascularization; there […]
Small Animal Imaging Studies
PET images were obtained after injection of 200 pmol of [68Ga]Ga-DOTA.SA.FAPi and [68Ga]Ga-DOT-AGA.(SA.FAPi)2 (1.0–1.6 MBq/100 μL) into U87MG or PC3 xenografts at 1, 2 and 3 h after injection. Static imaging was acquired for a time period between 10 and 45 min at 1, 2 and 3 h post injection, respectively.
To visualize the extent of FAP-specific tumor uptake, PET/CT blocking studies were performed as described above, and static scans were obtained for 30 min 2 h after the injection of the radiotracer along with the blocking agent (20 nmol).
PET images were corrected for gallium-68 decay and reconstructed with 12 iterations of the maximum a posteriori (MAP) algorithm using a voxel size of 0.25 mm. No correction was applied for attenuation. In addition, a point spread function iterative deconvolution was applied. The images were normalized, filtered using a Gaussian 3D algorithm with a 1.3 mm isotropic kernel and generated using PMOD software. The CT was carried out using step and shoot mode and employed 45 kVp and 400 uA as settings. The images […]

[1] = 2 h blocking (20 nmol UAMC1110)

- Biodistribution Blood (1 h): 8.5± 0.6 % IA/g
- Biodistribution Bone (1 h): 3.4±0.4 % IA/g
- Biodistribution Heart (1 h): 4.6±1.6 % IA/g
- Biodistribution Intestine (1 h): 2.7±0.2 % IA/g
- Biodistribution Kidney (1 h): 3.6±0.3 % IA/g
- Biodistribution Liver (1 h): 2.4±0.1 % IA/g
- Biodistribution Lung (1 h): 3.4±0.6 % IA/g
- Biodistribution Muscle (1 h): 2.5±0.2 % IA/g
- Biodistribution PC3-Tumor (1 h): 6.1±0.7 % IA/g
- Biodistribution Pancreas (1 h): 8.9±1.0 % IA/g
- Biodistribution Spleen (1 h): 2.5±0.1 % IA/g
- Biodistribution Stomach (1 h): 2.0±0.4 % IA/g
- Tumor/Blood ratio (1 h): 0.7±0.03
- Tumor/Liver ratio (1 h): 1.8±0.1
- Tumor/Muscle ratio (1 h): 2.4±0.4
- Tumor/Pancreas ratio (1 h): 0.7±0.1
- Biodistribution Blood (2 h): 4.8±0.3 % IA/g
- Biodistribution Bone (2 h): 2.0±0.2 % IA/g
- Biodistribution Heart (2 h): 1.9±0.1 % IA/g
- Biodistribution Intestine (2 h): 2.6±0.2 % IA/g
- Biodistribution Kidney (2 h): 2.7±0.2 % IA/g
- Biodistribution Liver (2 h): 2.7±0.2 % IA/g
- Biodistribution Lung (2 h): 2.2±0.1 % IA/g
- Biodistribution Muscle (2 h): 2.6±0.3 % IA/g
- Biodistribution PC3-Tumor (2 h): 5.4±2.4 % IA/g
- Biodistribution Pancreas (2 h): 6.4±0.5 % IA/g
- Biodistribution Spleen (2 h): 1.7±0.1 % IA/g
- Biodistribution Stomach (2 h): 1.4±0.1 % IA/g
- Tumor/Blood ratio (2 h): 1.2±0.6
- Tumor/Liver ratio (2 h): 2.1±0.1
- Tumor/Muscle ratio (2 h): 2.1±1.2
- Tumor/Pancreas ratio (2 h): 0.9±0.4
- Biodistribution Blood [1]: 0.3±0.1 % IA/g
- Biodistribution Bone [1]: 0.2±0.1 % IA/g
- Biodistribution Heart [1]: 0.1±0.05 % IA/g
- Biodistribution Intestine [1]: 0.4± 0.1 % IA/g
- Biodistribution Kidney [1]: 1.2±0.2 % IA/g
- Biodistribution Liver [1]: 0.2±0.04 % IA/g
- Biodistribution Lung [1]: 0.3±0.1 % IA/g
- Biodistribution Muscle [1]: 0.1±0.06 % IA/g
- Biodistribution PC3-Tumor [1]: 0.5±0.1 % IA/g
- Biodistribution Pancreas [1]: 0.1±0.06 % IA/g
- Biodistribution Spleen [1]: 0.1± 0.04 % IA/g
- Biodistribution Stomach [1]: 0.1±0.07 % IA/g
- Biodistribution Blood (3 h): 4.7±0.4 % IA/g
- Biodistribution Bone (3 h): 3.4±2.4 % IA/g
- Biodistribution Heart (3 h): 2.0±0.1 % IA/g
- Biodistribution Intestine (3 h): 2.4±0.4 % IA/g
- Biodistribution Kidney (3 h): 2.4±0.4 % IA/g
- Biodistribution Liver (3 h): 2.6±0.4 % IA/g
- Biodistribution Lung (3 h): 2.1±0.3 % IA/g
- Biodistribution Muscle (3 h): 2.3±0.2 % IA/g
- Biodistribution PC3-Tumor (3 h): 5.0±0.2 % IA/g
- Biodistribution Pancreas (3 h): 5.1±1.1 % IA/g
- Biodistribution Spleen (3 h): 1.8±0.5 % IA/g
- Biodistribution Stomach (3 h): 1.6±0.1 % IA/g
- Tumor/Blood ratio (3 h): 1.8±0.2
- Tumor/Liver ratio (3 h): 3.3±0.5
- Tumor/Muscle ratio (3 h): 3.8±0.4
- Tumor/Pancreas ratio (3 h): 1.7±0.4
SMILES: N#C[C@@H]1CC(F)(F)CN1C(=O)CNC(=O)c1ccnc2ccc(OCCCCNc3c(NCCNC(=O)CN4CCN(CC(=O)[O-])CCN(CC(=O)[O-])CCN(CC(=O)[O-])CC4)c(=O)c3=O)cc12.[68Ga+3] [[^68Ga]Ga-DOTA.SA.FAPi]
